Literature values, collected in patent US20030027804A1, “Therapeutic combinations for the treatment of hormone deficiencies” (priority 2001, published 2003).

What was measured:
[1] = in vivo
[2] = oral, sublingual or buccal 17-alkylated androgens
[3] = target: T1, sex hormone binding globulin (SHBG), albumin (Homo sapiens, UniProt P04278); settings: in men
T1 sequence (P04278 30-402): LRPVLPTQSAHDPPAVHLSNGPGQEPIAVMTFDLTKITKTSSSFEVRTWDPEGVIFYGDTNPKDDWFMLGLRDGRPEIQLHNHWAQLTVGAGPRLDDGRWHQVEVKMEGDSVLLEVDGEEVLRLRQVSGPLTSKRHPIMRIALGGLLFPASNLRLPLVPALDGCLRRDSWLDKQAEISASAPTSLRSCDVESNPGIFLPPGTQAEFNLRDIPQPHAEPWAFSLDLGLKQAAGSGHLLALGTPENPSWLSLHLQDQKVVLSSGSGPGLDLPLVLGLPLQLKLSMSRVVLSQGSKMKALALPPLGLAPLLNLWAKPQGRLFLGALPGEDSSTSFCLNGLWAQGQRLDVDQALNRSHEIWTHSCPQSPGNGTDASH

[4] = target: sex hormone binding globulin (SHBG), albumin (Homo sapiens, UniProt P02768); settings: in men
[5] = test system: sex hormone binding globulin (SHBG), albumin; settings: circulating in the blood
[6] = oral

Sequence of sex hormone binding globulin (SHBG), albumin (Homo sapiens, UniProt P02768) (P02768 25-609): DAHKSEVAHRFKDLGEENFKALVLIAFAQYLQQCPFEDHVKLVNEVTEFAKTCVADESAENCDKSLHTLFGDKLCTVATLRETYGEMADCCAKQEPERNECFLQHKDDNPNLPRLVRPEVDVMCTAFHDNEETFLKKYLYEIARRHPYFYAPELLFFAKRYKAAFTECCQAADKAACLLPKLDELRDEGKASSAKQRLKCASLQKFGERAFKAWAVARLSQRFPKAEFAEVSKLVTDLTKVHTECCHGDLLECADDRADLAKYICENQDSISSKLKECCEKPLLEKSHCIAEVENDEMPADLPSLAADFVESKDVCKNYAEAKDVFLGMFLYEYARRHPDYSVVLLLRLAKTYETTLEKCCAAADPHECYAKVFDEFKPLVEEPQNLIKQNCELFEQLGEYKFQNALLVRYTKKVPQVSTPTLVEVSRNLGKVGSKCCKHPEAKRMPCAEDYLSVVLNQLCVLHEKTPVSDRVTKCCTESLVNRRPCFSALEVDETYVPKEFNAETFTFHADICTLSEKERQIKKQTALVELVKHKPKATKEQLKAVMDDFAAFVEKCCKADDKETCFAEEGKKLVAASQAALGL

C[C@]12CC[C@@H]3c4ccc(O)cc4CC[C@H]3[C@@H]1CC[C@@H]2O [estradiol, 1,3,5(10)-Estratriene-3,17 beta-diol]
serum levels of estradiol required for clinical efficacy [1]: 40 to 60 pg/mL

C[C@]1(O)CC[C@H]2[C@@H]3CCC4=CC(=O)CC[C@]4(C)[C@@]3(F)[C@@H](O)C[C@@]21C [fluoxymesterone]
liver toxicity [2]: associated with liver toxicity

C[C@]12CCC(=O)C=C1CC[C@@H]1[C@@H]2CC[C@@]2(C)[C@H]1CC[C@]2(C)O [methyl testosterone, 17 alpha-methyl-testosterone]
liver toxicity [2]: associated with liver toxicity

C[C@]12CC[C@H]3[C@@H](CCC4=CC(=O)CC[C@@]43C)[C@@H]1CC[C@@H]2O [testosterone]
share of binding to high-affinity SHBG [3]: approximately 40%
share bound weakly to albumin [4]: 60%
testosterone in blood bound to protein [5]: 98%
orally administered testosterone cleared by the liver in the first pass [6]: about 44%
